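Cells were grown in 96-well plates and exposed to each compound for 48 hours at five concentrations; endpoints were interpolated linearly between bracketing concentrations, or set to the highest concentration if not reached. GI50 = concentration required for 50% inhibition of growth.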 Calls of active or inactive are those of the source. Rule as the data show it: active = GI50 up to about 1.1 µM and inactive = higher.
What was measured:
Assay in all cases: NCI anticancer screen, dose series, 48 h
U-251 = test system: U-251
XF498 = test system: XF498
SNB-78 = test system: SNB-78
A498 = test system: A498
DLD-1 = test system: DLD-1
MOLT-4 = test system: MOLT-4
SW-620 = test system: SW-620
SF-268 = test system: SF-268
DMS-273 = test system: DMS-273
OVCAR-5 = test system: OVCAR-5
Malme-3M = test system: Malme-3M
EKVX = test system: EKVX
SK-OV-3 = test system: SK-OV-3
HOP-92 = test system: HOP-92
CAKI-1 = test system: CAKI-1
KM12 = test system: KM12
NCI-H226 = test system: NCI-H226
HOP-18 = test system: HOP-18
DMS-114 = test system: DMS-114
HCC 2998 = test system: HCC 2998
SK-MEL-28 = test system: SK-MEL-28
SF-539 = test system: SF-539
HL-60 = test system: HL-60
COLO 205 = test system: COLO 205
HT-29 = test system: HT-29
KM-20L2 = test system: KM-20L2
M19-MEL = test system: M19-MEL
CCRF-CEM = test system: CCRF-CEM
MCF7 = test system: MCF7
UO-31 = test system: UO-31
HOP-62 = test system: HOP-62
OVCAR-4 = test system: OVCAR-4
NCI-H522 = test system: NCI-H522
HCT-116 = test system: HCT-116
RPMI-8226 = test system: RPMI-8226
HCT-15 = test system: HCT-15
OVCAR-8 = test system: OVCAR-8
LOX IMVI = test system: LOX IMVI
UACC-257 = test system: UACC-257
OVCAR-3 = test system: OVCAR-3
NCI/ADR-RES = test system: NCI/ADR-RES
SF-295 = test system: SF-295
SNB-75 = test system: SNB-75
K562 = test system: K562
SN12C = test system: SN12C
UACC-62 = test system: UACC-62
A549 = test system: A549
SNB-19 = test system: SNB-19
NCI-H460 = test system: NCI-H460
RXF 393 = test system: RXF 393
SK-MEL-2 = test system: SK-MEL-2
SK-MEL-5 = test system: SK-MEL-5
IGROV-1 = test system: IGROV-1
NCI-H23 = test system: NCI-H23
LXFL 529 = test system: LXFL 529
M14 = test system: M14
TK-10 = test system: TK-10
786-0 = test system: 786-0
SR = test system: SR
ACHN = test system: ACHN

With `CCCCCCCCCOCC(COP(=O)([O-])OCC[N+](C)(C)C)OC` (stereo not given) the GI50 (U-251) was > 100 µM (inactive), the GI50 (XF498) was > 100 µM (inactive) and the GI50 (SNB-78) was > 100 µM (inactive). For the same compound, the GI50 (A498) was > 100 µM (inactive), the GI50 (DLD-1) was > 100 µM (inactive) and the GI50 (MOLT-4) was > 100 µM (inactive). The GI50 (SW-620) was > 100 µM (inactive), the GI50 (SF-268) was > 100 µM (inactive) and the GI50 (DMS-273) was > 100 µM (inactive). For the same compound, the GI50 (OVCAR-5) was > 100 µM (inactive), the GI50 (Malme-3M) was > 100 µM (inactive) and the GI50 (EKVX) was > 100 µM (inactive). The GI50 (SK-OV-3) was > 100 µM (inactive), the GI50 (HOP-92) was > 100 µM (inactive) and the GI50 (CAKI-1) was > 100 µM (inactive). The GI50 (KM12) was > 100 µM (inactive), the GI50 (NCI-H226) was 99.1 µM (inactive) and the GI50 (HOP-18) was > 100 µM (inactive). The GI50 (DMS-114) was > 100 µM (inactive), the GI50 (HCC 2998) was > 100 µM (inactive) and the GI50 (SK-MEL-28) was > 100 µM (inactive). The GI50 (SF-539) was > 100 µM (inactive), the GI50 (HL-60) was > 100 µM (inactive) and the GI50 (COLO 205) was > 100 µM (inactive). The GI50 (HT-29) was > 100 µM (inactive), the GI50 (KM-20L2) was > 100 µM (inactive) and the GI50 (M19-MEL) was > 100 µM (inactive). The GI50 (CCRF-CEM) was > 100 µM (inactive), the GI50 (MCF7) was 68.7 µM (inactive) and the GI50 (UO-31) was > 100 µM (inactive). The GI50 (HOP-62) was > 100 µM (inactive), the GI50 (OVCAR-4) was > 100 µM (inactive) and the GI50 (NCI-H522) was > 100 µM (inactive). The GI50 (HCT-116) was > 100 µM (inactive), the GI50 (RPMI-8226) was > 100 µM (inactive) and the GI50 (HCT-15) was greater than 100 µM. For the same compound, the GI50 (OVCAR-8) was > 100 µM (inactive), the GI50 (LOX IMVI) was > 100 µM (inactive) and the GI50 (UACC-257) was > 100 µM (inactive). For the same compound, the GI50 (OVCAR-3) was > 100 µM (inactive), the GI50 (NCI/ADR-RES) was > 100 µM (inactive) and the GI50 (SF-295) was > 100 µM (inactive). For the same compound, the GI50 (SNB-75) was > 100 µM (inactive), the GI50 (K562) was > 100 µM (inactive) and the GI50 (SN12C) was > 100 µM (inactive). For the same compound, the GI50 (UACC-62) was > 100 µM (inactive), the GI50 (A549) was > 100 µM (inactive) and the GI50 (SNB-19) was > 100 µM (inactive). The GI50 (NCI-H460) was > 100 µM (inactive), the GI50 (RXF 393) was > 100 µM (inactive) and the GI50 (SK-MEL-2) was > 100 µM (inactive). The GI50 (SK-MEL-5) was > 100 µM (inactive), the GI50 (IGROV-1) was > 65.6 µM (inactive) and the GI50 (NCI-H23) was > 100 µM (inactive).

With `Cc1cc(O)c(C(=O)O)c2c1C(=O)c1c(O)c(OCC(O)C(O)C(O)C(O)CO)c(O)c(O)c1C2=O.NCCNCCO` (stereo not given) the GI50 (U-251) was > 100 µM (inactive), the GI50 (XF498) was > 100 µM (inactive) and the GI50 (SNB-78) was > 100 µM (inactive). For the same compound, the GI50 (A498) was > 100 µM (inactive), the GI50 (DLD-1) was > 100 µM (inactive) and the GI50 (MOLT-4) was > 100 µM (inactive). The GI50 (SW-620) was > 100 µM (inactive), the GI50 (SF-268) was > 100 µM (inactive) and the GI50 (OVCAR-5) was > 100 µM (inactive). The GI50 (Malme-3M) was > 100 µM (inactive), the GI50 (EKVX) was > 100 µM (inactive) and the GI50 (SK-OV-3) was > 100 µM (inactive). For the same compound, the GI50 (HOP-92) was > 100 µM (inactive), the GI50 (CAKI-1) was > 100 µM (inactive) and the GI50 (LXFL 529) was > 100 µM (inactive). The GI50 (KM12) was 39.9 µM (inactive), the GI50 (NCI-H226) was > 100 µM (inactive) and the GI50 (HOP-18) was > 100 µM (inactive). The GI50 (DMS-114) was > 100 µM (inactive), the GI50 (HCC 2998) was > 100 µM (inactive) and the GI50 (M14) was > 100 µM (inactive). For the same compound, the GI50 (SK-MEL-28) was > 100 µM (inactive), the GI50 (SF-539) was > 100 µM (inactive) and the GI50 (TK-10) was > 100 µM (inactive). For the same compound, the GI50 (COLO 205) was > 100 µM (inactive), the GI50 (HT-29) was > 100 µM (inactive) and the GI50 (KM-20L2) was > 100 µM (inactive). The GI50 (M19-MEL) was > 100 µM (inactive), the GI50 (CCRF-CEM) was > 100 µM (inactive) and the GI50 (UO-31) was > 100 µM (inactive). The GI50 (HOP-62) was > 100 µM (inactive), the GI50 (OVCAR-4) was > 100 µM (inactive) and the GI50 (NCI-H522) was > 100 µM (inactive). For the same compound, the GI50 (RPMI-8226) was > 100 µM (inactive), the GI50 (786-0) was > 100 µM (inactive) and the GI50 (HCT-15) was greater than 100 µM. The GI50 (OVCAR-8) was > 100 µM (inactive), the GI50 (LOX IMVI) was > 100 µM (inactive) and the GI50 (UACC-257) was > 100 µM (inactive). For the same compound, the GI50 (OVCAR-3) was > 100 µM (inactive), the GI50 (SF-295) was > 100 µM (inactive) and the GI50 (SNB-75) was > 100 µM (inactive). For the same compound, the GI50 (K562) was > 100 µM (inactive), the GI50 (SN12C) was > 100 µM (inactive) and the GI50 (UACC-62) was > 100 µM (inactive). The GI50 (A549) was > 100 µM (inactive), the GI50 (SNB-19) was > 100 µM (inactive) and the GI50 (RXF 393) was > 100 µM (inactive). For the same compound, the GI50 (SK-MEL-2) was > 100 µM (inactive), the GI50 (SK-MEL-5) was > 100 µM (inactive) and the GI50 (IGROV-1) was > 100 µM (inactive). The GI50 (NCI-H23) was > 100 µM (inactive).

`COc1cc(CNc2cnc3cc(N)ccc3n2)cc(OC)c1OC` was tested, and the GI50 (U-251) was 29.2 µM (inactive), the GI50 (XF498) was 22.6 µM (inactive) and the GI50 (A498) was 26.5 µM (inactive). For the same compound, the GI50 (DLD-1) was 58.1 µM (inactive), the GI50 (MOLT-4) was 15.9 µM (inactive) and the GI50 (SW-620) was 20 µM (inactive). For the same compound, the GI50 (SF-268) was > 100 µM (inactive), the GI50 (DMS-273) was 0.191 µM (active) and the GI50 (OVCAR-5) was 68.2 µM (inactive). The GI50 (Malme-3M) was 52.5 µM (inactive), the GI50 (EKVX) was 76.7 µM (inactive) and the GI50 (SK-OV-3) was 20.7 µM (inactive). The GI50 (HOP-92) was 58.5 µM (inactive), the GI50 (CAKI-1) was 34.7 µM (inactive) and the GI50 (LXFL 529) was 34.9 µM (inactive). For the same compound, the GI50 (KM12) was 66.4 µM (inactive), the GI50 (HOP-18) was 78.5 µM (inactive) and the GI50 (DMS-114) was 18.8 µM (inactive). The GI50 (HCC 2998) was 35.1 µM (inactive), the GI50 (M14) was 16.4 µM (inactive) and the GI50 (SK-MEL-28) was > 100 µM (inactive). The GI50 (SF-539) was 19.4 µM (inactive), the GI50 (HL-60) was 7.21 µM (inactive) and the GI50 (TK-10) was 64.9 µM (inactive). For the same compound, the GI50 (COLO 205) was 22.4 µM (inactive), the GI50 (HT-29) was 16.9 µM (inactive) and the GI50 (KM-20L2) was 14 µM (inactive). For the same compound, the GI50 (M19-MEL) was 16.5 µM (inactive), the GI50 (CCRF-CEM) was 31.4 µM (inactive) and the GI50 (UO-31) was 36.8 µM (inactive). For the same compound, the GI50 (SR) was 5.65 µM (inactive), the GI50 (HOP-62) was 51.4 µM (inactive) and the GI50 (OVCAR-4) was > 100 µM (inactive). For the same compound, the GI50 (NCI-H522) was 18.8 µM (inactive), the GI50 (ACHN) was 66.1 µM (inactive) and the GI50 (HCT-116) was 18.7 µM (inactive). The GI50 (786-0) was 43.7 µM (inactive), the GI50 (HCT-15) was 23 µM and the GI50 (OVCAR-8) was 37.4 µM (inactive). The GI50 (LOX IMVI) was 23.9 µM (inactive), the GI50 (UACC-257) was > 100 µM (inactive) and the GI50 (OVCAR-3) was 12.6 µM (inactive). The GI50 (SF-295) was 17.3 µM (inactive), the GI50 (SNB-75) was 31.6 µM (inactive) and the GI50 (K562) was 5.53 µM (inactive). The GI50 (SN12C) was 54.5 µM (inactive), the GI50 (UACC-62) was 12.7 µM (inactive) and the GI50 (A549) was 44.6 µM (inactive). The GI50 (SNB-19) was 34.8 µM (inactive), the GI50 (NCI-H460) was 30.8 µM (inactive) and the GI50 (SK-MEL-2) was 1.14 µM (inactive). The GI50 (SK-MEL-5) was 14.9 µM (inactive), the GI50 (IGROV-1) was 39.3 µM (inactive) and the GI50 (NCI-H23) was 28.5 µM (inactive).

Reference: ChEMBL document CHEMBL1201862, “PubChem BioAssay data set” (2004)
